The record followed here is patent US8129434B2, “Benzylphenyl cyclohexane derivatives and methods of use” (Theracos, Inc., priority 2007, dated 2012).

The target in one assay is T1, human SGLT1 (Homo sapiens, UniProt P13866).
T1 construct: Full-length human SGLT1 cDNA on pDream2.1 expression vector was obtained from GenScript Corporation; host or cells: COS-7 (American Type Culture Collection)
T1 sequence (P13866 1-664): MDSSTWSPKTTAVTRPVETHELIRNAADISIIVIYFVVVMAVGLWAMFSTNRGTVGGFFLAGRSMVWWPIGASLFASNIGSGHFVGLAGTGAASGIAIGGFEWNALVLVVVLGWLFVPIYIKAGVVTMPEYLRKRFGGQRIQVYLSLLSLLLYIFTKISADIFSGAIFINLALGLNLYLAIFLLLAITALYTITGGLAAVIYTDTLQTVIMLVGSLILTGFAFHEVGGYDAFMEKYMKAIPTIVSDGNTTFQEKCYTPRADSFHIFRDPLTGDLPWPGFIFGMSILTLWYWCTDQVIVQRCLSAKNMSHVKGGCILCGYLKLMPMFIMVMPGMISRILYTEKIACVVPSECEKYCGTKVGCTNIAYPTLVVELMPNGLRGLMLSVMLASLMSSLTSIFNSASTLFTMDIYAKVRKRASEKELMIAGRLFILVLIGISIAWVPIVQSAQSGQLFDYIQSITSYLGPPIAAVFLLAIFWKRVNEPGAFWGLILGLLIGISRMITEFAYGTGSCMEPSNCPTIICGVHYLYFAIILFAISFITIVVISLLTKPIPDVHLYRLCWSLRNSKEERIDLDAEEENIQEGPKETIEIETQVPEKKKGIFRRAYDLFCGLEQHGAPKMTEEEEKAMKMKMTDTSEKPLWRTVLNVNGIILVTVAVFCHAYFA
Description: Methyl-α-D-[U-14C]glucopyranoside uptake assay, human SGLT1 expressing cells. The class given is cell-based. The conditions noted are these: COS-7 cells transfected with human SGLT1; 25% human serum; 2 h at 37° C.; sodium-dependent uptake. Here is the method: Full-length human SGLT1 cDNA on pDream2.1 expression vector was obtained from GenScript Corporation and propagated in Escherichia coli strain DH5α using Luria-Bertani (LB) medium containing ampicillin. Plasmid DNA was isolated using the QIAGEN Plasmid Midi Kit (QIAGEN Inc.). […] Transfected cells were stored in DMEM containing 10% dimethyl sulfoxide (DMSO) at −80 ° C.
(§1) Cells expressing SGLT1 or SGLT2 were seeded on 96-well ScintiPlate scintillating plates (PerkinElmer, Inc.) in DMEM containing 10% FBS (1×10^5 cells per well in 100 μl medium) incubated at 37° C. under 5% CO2 for 48 h prior to the assay. Cells were washed twice with 150 μl of either sodium buffer (137 mM NaCl, 5.4 mM KCl, 2.8 mM CaCl2, 1.2 mM MgCl2, 10 mM tris(hydroxymethyl)aminomethane/N-2-hydroxyethylpiperazine-N′-ethanesulfonic acid [Tris/Hepes], pH 7.2) or sodium-free buffer (137 mM N-methyl-glucamine, 5.4 mM KCl, 2.8 mM CaCl2, 1.2 mM MgCl2, 10 mM Tris/Hepes, pH 7.2). Test compound in 50 μl each of sodium or sodium-free buffer containing 40 μCi/ml methyl-α-D-[U-^14C]glucopyranoside (Amersham Biosciences/GE Healthcare) and 25% human serum was added per well of a 96-well plate and incubated at 37° C. with shaking for either 2 h (SGLT1 assay) or 1.5 h (SGLT2 assay). Cells were washed twice with 150 μl of wash buffer (137 mM N-methylglucamine, 10 mM Tris/Hepes, pH 7.2) and methyl-α-D-[U-^14C]glucopyranoside uptake was quantitated using a TopCount scintillation counter (PerkinElmer, Inc.). Sodium-dependent glucopyranoside uptake was measured by subtracting the values obtained with sodium-free buffer from those obtained using sodium buffer (average of triplicate determinations).

The target of a further assay is T2, human SGLT2 (Homo sapiens, UniProt P31639).
T2 construct: A full-length cDNA clone expressing human SGLT2 (GenScript Corporation) was subcloned into Hind III and Not I sites of pEAK15 expression vector
T2 sequence (P31639 1-672): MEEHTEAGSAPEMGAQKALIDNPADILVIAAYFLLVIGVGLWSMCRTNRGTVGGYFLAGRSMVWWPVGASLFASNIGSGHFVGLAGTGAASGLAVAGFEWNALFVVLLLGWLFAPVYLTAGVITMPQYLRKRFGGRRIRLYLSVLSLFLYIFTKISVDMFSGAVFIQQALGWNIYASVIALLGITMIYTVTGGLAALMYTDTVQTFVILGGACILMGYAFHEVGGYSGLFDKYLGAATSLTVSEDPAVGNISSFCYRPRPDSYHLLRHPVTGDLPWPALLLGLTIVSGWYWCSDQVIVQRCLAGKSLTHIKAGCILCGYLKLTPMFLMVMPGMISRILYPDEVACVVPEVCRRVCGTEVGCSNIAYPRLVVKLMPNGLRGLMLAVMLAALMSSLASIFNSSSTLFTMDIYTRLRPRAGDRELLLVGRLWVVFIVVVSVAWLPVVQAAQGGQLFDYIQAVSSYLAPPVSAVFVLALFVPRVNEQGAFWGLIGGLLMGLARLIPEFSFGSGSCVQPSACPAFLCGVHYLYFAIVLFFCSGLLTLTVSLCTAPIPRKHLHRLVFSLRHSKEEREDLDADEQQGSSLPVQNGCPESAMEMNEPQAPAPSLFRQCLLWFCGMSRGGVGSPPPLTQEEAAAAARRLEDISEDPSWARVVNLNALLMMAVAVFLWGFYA
Briefly: Methyl-α-D-[U-14C]glucopyranoside uptake assay, cells stably expressing human SGLT2. The class given is cell-based. The note with it: HEK293.ETN cells stably expressing human SGLT2; 25% human serum; 1.5 h at 37° C.; sodium-dependent uptake.
Description: A full-length cDNA clone expressing human SGLT2 (GenScript Corporation) was subcloned into Hind III and Not I sites of pEAK15 expression vector. Clones harboring the cDNA inserts were identified by restriction analysis.
Plasmid containing human SGLT2 was linearized with Nsi I and purified by agarose gel electrophoresis. Using Lipofectamine 2000 Transfection Reagent (Invitrogen Corporation), DNA was transfected into HEK293.ETN cells and cultured in Dulbecco's Modified Eagle Medium (DMEM) containing 10% fetal bovine serum (FBS) at 37° C. under 5% CO2 for 24 h. Transfectants were selected in the same growth medium supplemented with puromycin (Invitrogen Corporation) for two weeks. Puromycin-resistant cells were recovered and seeded on a fresh 96-well plate (single cell per well) and cultured in the presence of puromycin until cells became confluent. Puromycin-resistant clones were evaluated for SGLT2 activity in the methyl-α-D-[U-^14C]glucopyranoside uptake assay described below.
as §1

Where only a bound is given, the exact number is not on record here.

On to `CCc1ccc(Cc2cc([C@H]3[C@H](O)[C@@H](O)[C@H](O)[C@@H](CO)[C@@H]3O)ccc2Cl)cc1` [5 (R = Et), (1R,2R,3S,4R,5R,6S)-4-(4-chloro-3-(4-ethylbenzyl)phenyl)-6-(hydroxymethyl)cyclohexane-1,2,3,5-tetraol], for which the IC50 on human SGLT1 and against human SGLT2 was less than 1 µM each time.

In the case of `CCOc1ccc(Cc2cc([C@H]3[C@H](O)[C@@H](O)[C@H](O)[C@@H](CO)[C@@H]3O)ccc2Cl)cc1` [Compound 9, (1R,2R,3S,4R,5R,6S)-4-(4-chloro-3-(4-ethoxybenzyl)phenyl)-6-(hydroxymethyl)cyclohexane-1,2,3,5-tetraol], the results for the concentration for half-maximal inhibition (IC50) on human SGLT1 and against human SGLT2 were 1 to 10 µM and less than 1 µM, respectively.

In the case of `OC[C@@H]1[C@@H](O)[C@H](O)[C@@H](O)[C@H](c2ccc(Cl)c(Cc3ccc(C4CC4)cc3)c2)[C@H]1O` [Compound 10, (1R,2R,3S,4R,5R,6S)-4-(4-chloro-3-(4-cyclopropylbenzyl)phenyl)-6-(hydroxymethyl)cyclohexane-1,2,3,5-tetraol], the half-maximal inhibitory concentration (IC50) at human SGLT1 and against human SGLT2 was less than 1 µM in each case.

In the case of `CCCc1ccc(Cc2cc([C@H]3[C@H](O)[C@@H](O)[C@H](O)[C@@H](CO)[C@@H]3O)ccc2Cl)cc1` [Compound 11, (1R,2R,3S,4R,5R,6S)-4-(4-chloro-3-(4-propylbenzyl)phenyl)-6-(hydroxymethyl)cyclohexane-1,2,3,5-tetraol], the half-maximal inhibitory concentration (IC50) was 1 to 10 µM against human SGLT1 and less than 1 µM against human SGLT2.

As to `OC[C@@H]1[C@@H](O)[C@H](O)[C@@H](O)[C@H](c2ccc(Cl)c(Cc3ccc(C4CCCCC4)cc3)c2)[C@H]1O` [Compound 12, (1R,2R,3S,4R,5R,6S)-4-(4-chloro-3-(4-cyclohexylbenzyl)phenyl)-6-(hydroxymethyl)cyclohexane-1,2,3,5-tetraol], the IC50 against human SGLT1 is more than 10 µM; on human SGLT2, less than 1 µM.

Take `OC[C@H]1C=C(c2ccc(Cl)c(Cc3ccc(OCC#CC4CC4)cc3)c2)[C@H](O)[C@@H](O)[C@@H]1O` [Compound 13, (1R,2S,3S,6R)-4-(4-chloro-3-(4-(3-cyclopropylprop-2-ynyloxy)benzyl)phenyl)-6-(hydroxymethyl)cyclohex-4-ene-1,2,3-triol]: the IC50 against human SGLT1 was more than 10 µM; on human SGLT2, less than 1 µM.

`CCc1ccc(Cc2cc([C@H]3[C@H](O)[C@@H](O)[C@H](O)[C@@H](COC(C)=O)[C@@H]3O)ccc2Cl)cc1` [Compound 17, ((1S,2R,3R,4S,5R,6R)-3-(4-chloro-3-(4-ethylbenzyl)phenyl)-2,4,5,6-tetrahydroxycyclohexyl)methyl acetate]: the IC50 at human SGLT1 is 1 to 10 µM; against human SGLT2, less than 1 µM.

`CCc1ccc(Cc2ccccc2O[C@H]2[C@H](O)[C@@H](O)[C@H](O)[C@@H](CO)[C@@H]2O)cc1` [Compound 30, (1R,2S,3R,4R,5S,6R)-4-(2-(4-ethylbenzyl)phenoxy)-6-(hydroxymethyl)cyclohexane-1,2,3,5-tetraol]: the 50% inhibitory concentration (IC50) against human SGLT1 was more than 10 µM; on human SGLT2, less than 1 µM.

In the case of `C=C1[C@H](CO)[C@@H](O)[C@H](O)[C@@H](O)[C@@H]1c1ccc(Cl)c(Cc2ccc(CC)cc2)c1` [Compound 35, (1R,2R,3S,4S,6R)-4-(4-chloro-3-(4-ethylbenzyl)phenyl)-6-(hydroxymethyl)-5-methylenecyclohexane-1,2,3-triol], the IC50 on human SGLT1 was 1 to 10 µM; on human SGLT2, less than 1 µM.

As to `CCc1ccc(Cc2cc([C@H]3[C@H](O)[C@@H](O)[C@H](O)[C@@H](CO)C34CC4)ccc2Cl)cc1` [Compound 37, (4S,5S,6R,7R,8R)-4-(4-chloro-3-(4-ethylbenzyl)phenyl)-8-(hydroxymethyl)spiro[2.5]octane-5,6,7-triol], the results for the IC50 against human SGLT1 and on human SGLT2 were 1 to 10 µM and less than 1 µM, respectively.

On to `CC(=O)c1ccc(Cc2cc([C@H]3[C@H](O)[C@@H](O)[C@H](O)[C@@H](CO)[C@@H]3O)ccc2Cl)cc1` [Compound 39, 1-(4-(2-chloro-5-((1R,2S,3R,4R,5S,6R)-2,3,4,6-tetrahydroxy-5-(hydroxymethyl)cyclohexyl)benzyl)phenyl)ethanone], for which the values for the IC50 at human SGLT1 and against human SGLT2 were 1 to 10 µM and less than 1 µM, respectively.

`CC(O)c1ccc(Cc2cc([C@H]3[C@H](O)[C@@H](O)[C@H](O)[C@@H](CO)[C@@H]3O)ccc2Cl)cc1` (stereo partly drawn) [Compound 40, (1R,2R,3S,4R,5R,6S)-4-(4-chloro-3-(4-(1-hydroxyethyl)benzyl)phenyl)-6-(hydroxymethyl)cyclohexane-1,2,3,5-tetraol]: the concentration for half-maximal inhibition (IC50) is 1 to 10 µM at human SGLT1 and less than 1 µM at human SGLT2.

For orientation: IC50 means the concentration that gives 50% inhibition. Lower therefore signals greater potency.
